Experimental data published in patent US20250161338A1, “Compounds for Anti-aging Intervention” (AGENCY FOR SCIENCE, TECHNOLOGY AND RESEARCH, priority 2022, published 2025).

Assays:
[1] = tested on: prototrophic yeast strain (CEN.PK113-7D); assay: Propidium iodide fluorescence-based CLS method in yeast (incl. high-throughput screening); type: cell-based, Saccharomyces cerevisiae;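 for PI intensity: untreated reference is eight DMSO and water control wells per plate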
In short: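 CEN.PK113-7D aged in SD medium at 30 °C with compounds (rapamycin 0–10 nM; sugars 0–8 mM; screen at single concentrations). At each age point cells were stained with 5 μg/mL PI for 15 min; fluorescence was normalized to OD600, background-subtracted, and survival scaled against boiled-cell control.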

HEK293 cell line = assay: CLS in human cells using crystal violet outgrowth assay; type: cell-based; details: Day 4 culture (FIG. 18A); seven days of outgrowth
Procedure: Human embryonic kidney 293 (HEK293) cells (ATCC, Manassas, Virginia, United States of America), lung epithelial (A549) cells (ATCC, Manassas, Virginia, United States of America) and fibroblast (IMR90) cells (ATCC, Manassas, Virginia, United States of America) were cultured in the standard D10 medium, consisting of high-glucose DMEM (HyClone, Cytiva, Marlborough, Massachusetts, USA) supplemented with 10% Fetal Bovine Serum (FBS) (Gibco™, ThermoFisher Scientific, Waltham, Massachusetts, USA) and 1% Penicillin Streptomycin Solution (Gibco™, ThermoFisher Scientific, Waltham, Massachusetts, USA). All cells were cultured in a humidified incubator with 5% CO2 at 37° C.
80,000 cells were seeded in a 96-well culture plate with or without compound treatment. On Day 4, Day 6, and Day 8 after seeding, floating dead cells were aspirated with exhausted D10 medium. Then, attached cells were gently washed with 1×PBS to remove D10 medium residue and treated with 0.2 mL of 0.25% trypsin. Cells were gently mixed by pipetting and a 2% aliquot (4 μL) was transferred to 6-well experiment plates with fresh D10 medium. […]
In this approach, an outgrowth assay was used to determine the number of live cells in the 6-well experiment plate using crystal violet staining. […] These live cells were then stained with crystal violet dye and assessed qualitatively.

Q: What does the source list for `OC[C@H]1O[C@H](CO)[C@@H](O)[C@@H]1O` [2,5-AM, 2,5-anhydro-D-mannitol]?
A: survival of aged cells ([1]; 4 mM and 8 mM, Day 4, without compound approx. 50%): approximately 80%; survival of aged cells ([1]; Day 7, without compound less than 20%): approximately 75%; Yeast CLS increase ([1]; concentration tested 300 μg/mL, Yes/No call of the screen): Yes; PI intensity ([1]; concentration tested 300 μg/mL, solvent water, age point Day 7): 36,240.0; cellular lifespan (crystal violet, qualitative) (HEK293 cell line): able to increase cellular lifespan
